Data on one molecule can be found in PMC5218480 (PLoS ONE, 2017).

This assay concerns MV-4-11 cells. Description: Gene expression microarray analysis (Affymetrix PrimeView) and GSEA. It counts as cell-based, human. Also noted: RFU PODN (11730768_x_at) / Fold change /veh PODN (11730768_x_at) / RFU LINC00158 (11744669_a_at) / Fold change /veh LINC00158 (11744669_a_at) / RFU DUSP10 (11751237_a_at) / Fold change /veh DUSP10 (11751237_a_at) / RFU ID3 (11757404_x_at) / Fold change /veh ID3 (11757404_x_at) / RFU PLEKHG5 (11737974_s_at) / Fold change /veh PLEKHG5 (11737974_s_at) / RFU LRRC4B (11730491_at) / Fold change /veh LRRC4B (11730491_at) / RFU GIMAP4 (11747438_a_at) / Fold change /veh GIMAP4 (11747438_a_at) / RFU KRT8 (11758183_x_at) / Fold change /veh KRT8 (11758183_x_at) / RFU CNN1 (11734310_a_at) / Fold change /veh CNN1 (11734310_a_at) / RFU VPS37D (11726825_at) / Fold change /veh VPS37D (11726825_at) / RFU C10orf10 (11716522_x_at) / Fold change /veh C10orf10 (11716522_x_at) / RFU KIR2DL2 /// KIR2DL4 /// KIR2DL5A /// KIR2DL5B /// KIR2DS1 /// KIR2DS2 /// KIR2DS3 /// KIR2DS4 /// KIR3DL3 /// KIR3DL3 /// KIR3DS1 (11738374_at) / Fold change /veh KIR2DL2 /// KIR2DL4 /// KIR2DL5A /// KIR2DL5B /// KIR2DS1 /// KIR2DS2 /// KIR2DS3 /// KIR2DS4 /// KIR3DL3 /// KIR3DL3 /// KIR3DS1 (11738374_at) / RFU C1QL1 (11718748_at) / Fold change /veh C1QL1 (11718748_at) / RFU TMPRSS4 (11747572_a_at) / Fold change /veh TMPRSS4 (11747572_a_at) / RFU HAMP (11756126_x_at) / Fold change /veh HAMP (11756126_x_at) / RFU RNFT2 (11725882_a_at) / Fold change /veh RNFT2 (11725882_a_at) / RFU NR4A2 (11747474_a_at) / Fold change /veh NR4A2 (11747474_a_at) / RFU ABCC12 (11746883_a_at) / Fold change /veh ABCC12 (11746883_a_at) / RFU TMEM136 (11760407_x_at) / Fold change /veh TMEM136 (11760407_x_at) / RFU CLDN22 /// WWC2 (11732394_at) / Fold change /veh CLDN22 /// WWC2 (11732394_at) / RFU HLA-DPB1 (11760878_x_at) / Fold change /veh HLA-DPB1 (11760878_x_at) / RFU SPINT1 (11716480_a_at) / Fold change /veh SPINT1 (11716480_a_at) / RFU GAP43 (11754022_s_at) / Fold change /veh GAP43 (11754022_s_at) / RFU A4GNT (11735810_at) / Fold change /veh A4GNT (11735810_at) / RFU PRB3 (11715151_x_at) / Fold change /veh PRB3 (11715151_x_at) / RFU TUBB4B (11761932_at) / Fold change /veh TUBB4B (11761932_at) / RFU CAPN14 (11732068_a_at) / Fold change /veh CAPN14 (11732068_a_at) / RFU TMCC2 (11721928_a_at) / Fold change /veh TMCC2 (11721928_a_at) / RFU IRGQ (11745062_a_at) / Fold change /veh IRGQ (11745062_a_at) / RFU FAM174B (11720279_a_at) / Fold change /veh FAM174B (11720279_a_at) / RFU TMPRSS4 (11748680_a_at) / Fold change /veh TMPRSS4 (11748680_a_at) / RFU FAM212B (11763350_a_at) / Fold change /veh FAM212B (11763350_a_at) / RFU PLEKHG5 (11743358_a_at) / Fold change /veh PLEKHG5 (11743358_a_at) / RFU ZSCAN30 (11745921_a_at) / Fold change /veh ZSCAN30 (11745921_a_at) / RFU CMKLR1 (11741424_a_at) / Fold change /veh CMKLR1 (11741424_a_at) / RFU LOC101060620 /// MAPK8IP1 (11723275_at) / Fold change /veh LOC101060620 /// MAPK8IP1 (11723275_at) / RFU SPTSSB (11747773_x_at) / Fold change /veh SPTSSB (11747773_x_at) / RFU PRSS12 (11739890_at) / Fold change /veh PRSS12 (11739890_at) / RFU BIN1 (11741810_x_at) / Fold change /veh BIN1 (11741810_x_at) / RFU WNT11 (11732464_a_at) / Fold change /veh WNT11 (11732464_a_at) / RFU C10orf10 (11716521_a_at) / Fold change /veh C10orf10 (11716521_a_at) / RFU C5orf56 (11738089_at) / Fold change /veh C5orf56 (11738089_at) / RFU CYB561 (11721691_x_at) / Fold change /veh CYB561 (11721691_x_at) / RFU ANKRD19P (11752326_a_at) / Fold change /veh ANKRD19P (11752326_a_at) / RFU OR2T12 /// OR2T33 /// OR2T8 (11738714_s_at) / Fold change /veh OR2T12 /// OR2T33 /// OR2T8 (11738714_s_at) / RFU VCAN (11748164_a_at) / Fold change /veh VCAN (11748164_a_at) / RFU JSRP1 (11732532_at) / Fold change /veh JSRP1 (11732532_at) / RFU KRTAP10-11 (11738290_x_at) / Fold change /veh KRTAP10-11 (11738290_x_at) / RFU MYO3A (11730013_a_at) / Fold change /veh MYO3A (11730013_a_at) / RFU EBF3 (11725865_a_at) / Fold change /veh EBF3 (11725865_a_at) / RFU CAMK2N1 (11719241_x_at) / Fold change /veh CAMK2N1 (11719241_x_at) / RFU C5orf56 (11738088_a_at) / Fold change /veh C5orf56 (11738088_a_at) / RFU OLFML3 (11715873_a_at) / Fold change /veh OLFML3 (11715873_a_at) / RFU LOC100653217 /// NTM (11731650_a_at) / Fold change /veh LOC100653217 /// NTM (11731650_a_at) / RFU MAPK11 (11762145_a_at) / Fold change /veh MAPK11 (11762145_a_at) / RFU FIZ1 (11724087_x_at) / Fold change /veh FIZ1 (11724087_x_at) / RFU OASL (11726364_x_at) / Fold change /veh OASL (11726364_x_at) / RFU SOX15 (11748057_x_at) / Fold change /veh SOX15 (11748057_x_at) / RFU CD79A (11719716_a_at) / Fold change /veh CD79A (11719716_a_at) / RFU HIST1H1D (11736915_at) / Fold change /veh HIST1H1D (11736915_at) / RFU CASKIN2 (11723855_a_at) / Fold change /veh CASKIN2 (11723855_a_at) / RFU LOC730098 (11760151_x_at) / Fold change /veh LOC730098 (11760151_x_at) / RFU OR4N2 (11742367_at) / Fold change /veh OR4N2 (11742367_at) / RFU PRRT2 (11749266_a_at) / Fold change /veh PRRT2 (11749266_a_at) / RFU SNX32 (11753110_a_at) / Fold change /veh SNX32 (11753110_a_at) / RFU CDHR5 (11726645_a_at) / Fold change /veh CDHR5 (11726645_a_at) / RFU RCAN1 (11760418_a_at) / Fold change /veh RCAN1 (11760418_a_at) / RFU FAM167A (11723789_a_at) / Fold change /veh FAM167A (11723789_a_at) / RFU FAM26E (11764081_at) / Fold change /veh FAM26E (11764081_at) / RFU ISYNA1 (11749810_s_at) / Fold change /veh ISYNA1 (11749810_s_at) / RFU ACY1 (11761880_at) / Fold change /veh ACY1 (11761880_at) / RFU 11764098_at / Fold change /veh 11764098_at / RFU SAMD14 (11745864_x_at) / Fold change /veh SAMD14 (11745864_x_at) / RFU NPB (11741838_a_at) / Fold change /veh NPB (11741838_a_at) / RFU TMPRSS6 (11731388_a_at) / Fold change /veh TMPRSS6 (11731388_a_at) / RFU KRTAP10-2 (11738614_at) / Fold change /veh KRTAP10-2 (11738614_at) / RFU ARHGAP8 /// PRR5-ARHGAP8 (11727945_x_at) / Fold change /veh ARHGAP8 /// PRR5-ARHGAP8 (11727945_x_at) / RFU KRTAP5-7 /// NADSYN1 (11734609_at) / Fold change /veh KRTAP5-7 /// NADSYN1 (11734609_at) / RFU RASL12 (11751679_a_at) / Fold change /veh RASL12 (11751679_a_at) / RFU CDKN2B (11736163_a_at) / Fold change /veh CDKN2B (11736163_a_at) / RFU PRF1 (11729649_at) / Fold change /veh PRF1 (11729649_at) / RFU, ZNF638 /// ZNF638-IT1 / Fold change vs veh, ZNF638 /// ZNF638-IT1 / RFU, PANK3 / Fold change vs veh, PANK3 / RFU, SH3YL1 / Fold change vs veh, SH3YL1 / RFU, ZEB2 / Fold change vs veh, ZEB2 / RFU, NRIP1 / Fold change vs veh, NRIP1 / RFU, PTTG1IP / Fold change vs veh, PTTG1IP / RFU, CAPN2 / Fold change vs veh, CAPN2 / RFU, MED14 / Fold change vs veh, MED14 / RFU, SNORA58 / Fold change vs veh, SNORA58 / RFU, C1orf63 / Fold change vs veh, C1orf63 / RFU, LRRFIP1 / Fold change vs veh, LRRFIP1 / RFU, NDUFAF7 / Fold change vs veh, NDUFAF7 / RFU, SLC12A2 / Fold change vs veh, SLC12A2 / RFU, IBTK / Fold change vs veh, IBTK / RFU, ESF1 / Fold change vs veh, ESF1 / Fold change vs veh, TMEM50B / RFU, TAOK1 / Fold change vs veh, TAOK1 / RFU, ACBD3 / Fold change vs veh, ACBD3 / RFU, TMA16 / Fold change vs veh, TMA16 / RFU, RWDD3 / Fold change vs veh, RWDD3 / RFU, BCAT1 / Fold change vs veh, BCAT1 / RFU, EDEM3 / Fold change vs veh, EDEM3 / RFU, TMEM33 / Fold change vs veh, TMEM33 / RFU, WDR75 / Fold change vs veh, WDR75 / RFU, AHCTF1 / Fold change vs veh, AHCTF1 / RFU, TFRC / Fold change vs veh, TFRC / RFU, ZDHHC17 / Fold change vs veh, ZDHHC17 / RFU, NOM1 / Fold change vs veh, NOM1 / RFU, ARL8B / Fold change vs veh, ARL8B / RFU, ZBTB11 / Fold change vs veh, ZBTB11 / RFU, TAMM41 / Fold change vs veh, TAMM41 / RFU, KIAA1704 /// LOC100996395 / Fold change vs veh, KIAA1704 /// LOC100996395 / RFU, ING1 / Fold change vs veh, ING1 / RFU, TRMT61B / Fold change vs veh, TRMT61B / RFU, FUBP3 / Fold change vs veh, FUBP3 / RFU, TP53 / Fold change vs veh, TP53 / RFU, TNKS2 / Fold change vs veh, TNKS2 / RFU, ZFP14 / Fold change vs veh, ZFP14 / RFU, ACTR2 / Fold change vs veh, ACTR2 / RFU, PPP3R1 / Fold change vs veh, PPP3R1 / RFU, PIK3R1 / Fold change vs veh, PIK3R1 / RFU, HNRNPA1 / Fold change vs veh, HNRNPA1 / RFU, RNF170 / Fold change vs veh, RNF170 / RFU, ZNF28 / Fold change vs veh, ZNF28 / RFU, RNGTT / Fold change vs veh, RNGTT / RFU, OGT / Fold change vs veh, OGT / RFU, BRD1 / Fold change vs veh, BRD1 / RFU, MARS / Fold change vs veh, MARS / RFU, ZNF655 / Fold change vs veh, ZNF655 / RFU, FAHD1 / Fold change vs veh, FAHD1 / RFU, BDP1 / Fold change vs veh, BDP1 / RFU, LRRCC1 / Fold change vs veh, LRRCC1 / RFU, ARID1A / Fold change vs veh, ARID1A / RFU, ZNF146 / Fold change vs veh, ZNF146 / RFU, ZNF330 / Fold change vs veh, ZNF330 / RFU, GPN3 / Fold change vs veh, GPN3 / RFU, C9orf123 / Fold change vs veh, C9orf123 / RFU, N4BP2L2 / Fold change vs veh, N4BP2L2 / RFU, ARFIP1 / Fold change vs veh, ARFIP1 / RFU, FAM179B / Fold change vs veh, FAM179B / RFU, BCL10 / Fold change vs veh, BCL10 / RFU, UHRF1BP1L / Fold change vs veh, UHRF1BP1L / RFU, BET1 / Fold change vs veh, BET1 / RFU, CNOT2 / Fold change vs veh, CNOT2 / RFU, ZNF268 / Fold change vs veh, ZNF268 / Fold change vs veh, ZNF507 / RFU, DGCR2 / Fold change vs veh, DGCR2 / RFU, WDSUB1 / Fold change vs veh, WDSUB1 / Fold change vs veh, HSP90B1 /// MIR3652 / RFU, ADSS / Fold change vs veh, ADSS / RFU, GK / Fold change vs veh, GK / RFU, ZNF148 / Fold change vs veh, ZNF148 / RFU, TAF9 / Fold change vs veh, TAF9 / RFU, SLC1A5 / Fold change vs veh, SLC1A5 / RFU, SLMO2 / Fold change vs veh, SLMO2 / RFU, ABCC4 / Fold change vs veh, ABCC4 / RFU, LOC101060439 /// RAP1B / Fold change vs veh, LOC101060439 /// RAP1B / RFU, RFX7 / Fold change vs veh, RFX7 / RFU, GTPBP10 / Fold change vs veh, GTPBP10 / RFU, CNEP1R1 / Fold change vs veh, CNEP1R1 / RFU, BIVM-ERCC5 /// ERCC5 / Fold change vs veh, BIVM-ERCC5 /// ERCC5 / RFU, ILF3 / Fold change vs veh, ILF3 / RFU 11762660_at / Fold change /veh 11762660_at / RFU VCAN (11757783_s_at) / Fold change /veh VCAN (11757783_s_at) / RFU DDX43 (11728927_at) / Fold change /veh DDX43 (11728927_at) / RFU KRT8 (11758188_x_at) / Fold change /veh KRT8 (11758188_x_at) / RFU NKD1 (11759106_at) / Fold change /veh NKD1 (11759106_at) / RFU SRD5A1 (11742802_a_at) / Fold change /veh SRD5A1 (11742802_a_at) / RFU TPSAB1 /// TPSB2 (11721975_s_at) / Fold change /veh TPSAB1 /// TPSB2 (11721975_s_at) / RFU GSTM3 (11746129_a_at) / Fold change /veh GSTM3 (11746129_a_at) / RFU IL23R (11737362_x_at) / Fold change /veh IL23R (11737362_x_at) / RFU TMEM51 (11727254_a_at) / Fold change /veh TMEM51 (11727254_a_at) / RFU PIWIL2 (11732686_x_at) / Fold change /veh PIWIL2 (11732686_x_at) / RFU ORM1 (11744905_x_at) / Fold change /veh ORM1 (11744905_x_at) / RFU CCDC152 (11743942_at) / Fold change /veh CCDC152 (11743942_at) / RFU ECM1 (11717891_a_at) / Fold change /veh ECM1 (11717891_a_at) / RFU IL23R (11748794_a_at) / Fold change /veh IL23R (11748794_a_at) / RFU TNFAIP8L3 (11732012_x_at) / Fold change /veh TNFAIP8L3 (11732012_x_at) / RFU MBOAT4 (11741988_at) / Fold change /veh MBOAT4 (11741988_at) / RFU 11764193_at / Fold change /veh 11764193_at / RFU TMEM53 (11763286_at) / Fold change /veh TMEM53 (11763286_at) / RFU MAGEB2 (11727129_at) / Fold change /veh MAGEB2 (11727129_at) / RFU TMEM200A (11744735_a_at) / Fold change /veh TMEM200A (11744735_a_at) / RFU CCDC152 (11751479_a_at) / Fold change /veh CCDC152 (11751479_a_at) / RFU FAM211A (11726209_a_at) / Fold change /veh FAM211A (11726209_a_at) / RFU RGS16 (11746705_a_at) / Fold change /veh RGS16 (11746705_a_at) / RFU VCAN (11755009_s_at) / Fold change /veh VCAN (11755009_s_at) / RFU RHOB (11743442_s_at) / Fold change /veh RHOB (11743442_s_at) / RFU RGS16 (11720943_a_at) / Fold change /veh RGS16 (11720943_a_at) / RFU RGS16 (11720944_at) / Fold change /veh RGS16 (11720944_at) / RFU, VPS4B / Fold change vs veh, VPS4B / RFU, CREB1 / Fold change vs veh, CREB1 / RFU, DNAJC13 / Fold change vs veh, DNAJC13 / RFU, GNAQ / Fold change vs veh, GNAQ / RFU, CDK5R1 / Fold change vs veh, CDK5R1 / RFU, ZRANB3 / Fold change vs veh, ZRANB3 / RFU, CUL4A / Fold change vs veh, CUL4A / RFU, CCNY / Fold change vs veh, CCNY / RFU, UFL1 / Fold change vs veh, UFL1 / RFU, COG3 / Fold change vs veh, COG3 / RFU, DIAPH2 / Fold change vs veh, DIAPH2 / RFU, SKA2 / Fold change vs veh, SKA2 / RFU, AFF3 / Fold change vs veh, AFF3 / RFU, LMF1 / Fold change vs veh, LMF1 / RFU, IPO11 / Fold change vs veh, IPO11 / RFU, DFFB / Fold change vs veh, DFFB / RFU, FOXP1 / Fold change vs veh, FOXP1 / RFU, CARD8 / Fold change vs veh, CARD8 / RFU, STRN3 / Fold change vs veh, STRN3 / RFU, ADK / Fold change vs veh, ADK / RFU, RASSF2 / Fold change vs veh, RASSF2 / RFU, WIPF1 / Fold change vs veh, WIPF1 / RFU, LARP1B / Fold change vs veh, LARP1B / RFU, RASA1 / Fold change vs veh, RASA1 / RFU, RB1 / Fold change vs veh, RB1 / RFU, PPFIA1 / Fold change vs veh, PPFIA1 / RFU, MAT2A / Fold change vs veh, MAT2A / RFU, CCT5 / Fold change vs veh, CCT5 / RFU, WDR92 / Fold change vs veh, WDR92 / RFU, CUX1 / Fold change vs veh, CUX1 / RFU, TTC7A / Fold change vs veh, TTC7A / RFU, TMEM135 / Fold change vs veh, TMEM135 / RFU, DEPTOR / Fold change vs veh, DEPTOR / RFU, CPM / Fold change vs veh, CPM / RFU, DNAJB6 / Fold change vs veh, DNAJB6 / RFU, CACNA2D3 / Fold change vs veh, CACNA2D3 / RFU, DTX4 / Fold change vs veh, DTX4 / RFU, TFCP2 / Fold change vs veh, TFCP2 / RFU, GMCL1 /// GMCL1P1 / Fold change vs veh, GMCL1 /// GMCL1P1 / RFU, AEBP2 / Fold change vs veh, AEBP2 / RFU, SNHG1 /// SNORD22 /// SNORD25 /// SNORD26 /// SNORD27 /// SNORD28 /// SNORD29 /// SNORD31 / Fold change vs veh, SNHG1 /// SNORD22 /// SNORD25 /// SNORD26 /// SNORD27 /// SNORD28 /// SNORD29 /// SNORD31 / Fold change (Aza/veh), C12orf56 (ProbeSet 11735607_a_at) / Fold change (ACY-1035/veh), C12orf56 (ProbeSet 11735607_a_at) / Fold change (Aza/veh), FGFR1OP (ProbeSet 11751329_s_at) / Fold change (ACY-1035/veh), FGFR1OP (ProbeSet 11751329_s_at) / Fold change (Aza/veh), VPS36 (ProbeSet 11739960_a_at) / Fold change (ACY-1035/veh), VPS36 (ProbeSet 11739960_a_at) / RFU SYPL1 (11715823_x_at) / Fold change /veh SYPL1 (11715823_x_at) / RFU IGFBP7 (11715501_s_at) / Fold change /veh IGFBP7 (11715501_s_at) / RFU REEP3 (11722064_at) / Fold change /veh REEP3 (11722064_at) / RFU IGLL1 (11728026_x_at) / Fold change /veh IGLL1 (11728026_x_at): dose or concentration left out as unconfirmed. As to conditions: MV-4-11 cells, 48 hours.

As for `Nc1ncn([C@@H]2O[C@H](CO)[C@@H](O)[C@H]2O)c(=O)n1` [azacitidine], the “RFU TMEM136 (11760407_x_at)” value is listed as 16.07 RFU.
